We go through 14 compounds from PubChem BioAssay (NCI).

Among the test systems are HCC-2998 colon; UO-31 renal; MDA-MB-231 breast; TK-10 renal; CAKI-1 renal; A498 renal; SW-620 colon; NCI-H522 lung; M14 melanoma.
Common to all, as to experiment: DTP human tumour cell line panel, 48 h

Structures are written as SMILES.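 These data come from cells grown in 96-well plates and exposed to compound for 48 hours at five concentrations. The concentration for 50% growth inhibition is given as GI50. The concentration for full growth arrest is given as TGI.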 Where only a bound is given, the exact number is not on record here.

Broadly, the GI50 is the concentration at which growth is held to half of that of the control. The TGI is the concentration giving total growth inhibition. In the case of `Cc1nc2ccccc2c(/C=C/c2ccc(Cl)cc2)c1C(=O)/C=C/c1ccccc1`, the GI50 with HCC-2998 colon is 1.66 µM; in the test with UO-31 renal, 1.18 µM; with MDA-MB-231 breast it was 1.87 µM. In addition, the values for the total growth inhibition concentration (TGI) in the test on HCC-2998 colon, in the test with UO-31 renal and in the test on MDA-MB-231 breast were 3.3 µM, 2.4 µM and 4.37 µM, respectively.

`CN1C/C(=C\C=C\c2ccccc2)C(=O)/C(=C/C=C/c2ccccc2)C1`: the TGI with TK-10 renal, with CAKI-1 renal, in the test on A498 renal, with HCC-2998 colon, in the test on SW-620 colon and in the test with NCI-H522 lung was greater than 100 µM each time. Also, the concentration for total growth inhibition (TGI) in the test on UO-31 renal and with M14 melanoma was greater than 100 µM throughout.

As for `CCCCNC(=O)/N=C/c1c(O)c2ccccc2oc1=O`, the TGI in the test with TK-10 renal is greater than 100 µM; in the test on HCC-2998 colon, greater than 100 µM; in the test on SW-620 colon, greater than 100 µM; with UO-31 renal, 56.3 µM; with M14 melanoma it was greater than 100 µM.

`O=C1NCCS(=O)(=O)N2CCC[C@@H]12`: the concentration for total growth inhibition (TGI) in the test with TK-10 renal, with CAKI-1 renal, with A498 renal, in the test with HCC-2998 colon, in the test on SW-620 colon and in the test on NCI-H522 lung was greater than 100 µM throughout. The concentration for total growth inhibition (TGI) in the test on UO-31 renal and in the test on M14 melanoma was greater than 100 µM in each case.

On to `O=C1c2ccccc2C(=O)c2[nH]c(Cc3ccc(F)cc3)nc21`, for which the TGI in the test with TK-10 renal worked out at 53.1 µM; in the test with CAKI-1 renal it was 50.2 µM; with HCC-2998 colon, 42.8 µM; in the test with SW-620 colon it was 38.3 µM; with NCI-H522 lung, 34.3 µM; in the test on UO-31 renal, 59.5 µM. In the test on M14 melanoma, the TGI worked out at 30.2 µM.

As for `O=C1CSc2cc([N+](=O)[O-])ccc2N1`, the TGI in the test with TK-10 renal, with CAKI-1 renal, with A498 renal, in the test on HCC-2998 colon, with SW-620 colon and in the test on NCI-H522 lung was greater than 100 µM in each case. The same compound came in with a concentration for total growth inhibition (TGI) in the test on M14 melanoma greater than 100 µM.

As to `O=C(N/N=C/c1cc(Br)cc(Br)c1[O-])c1ccccc1O.O=C(N/N=C/c1cc(Br)cc(Br)c1[O-])c1ccccc1O.[Ni+2]`, the TGI worked out at 1.87 µM in the test on TK-10 renal; 1.53 µM in the test on CAKI-1 renal; 1.39 µM in the test on HCC-2998 colon; 1.94 µM with SW-620 colon; 0.727 µM with NCI-H522 lung; 8.5 µM with UO-31 renal. The TGI in the test on M14 melanoma was determined as 1.47 µM.

As to `NC(CSSCC(N)Cc1ccccc1)Cc1ccccc1` (stereo not drawn), the TGI was greater than 100 µM in the test on TK-10 renal; greater than 100 µM in the test on A498 renal; greater than 100 µM with HCC-2998 colon; greater than 100 µM in the test with SW-620 colon; 30.9 µM in the test with NCI-H522 lung; greater than 100 µM in the test with UO-31 renal. Moreover, in the test with M14 melanoma, the TGI was determined as 63.4 µM.

As for `COc1ccc(C[C@H](N)C(=O)N2C[C@@H](CO)C[C@@H](n3ccc(=O)[nH]c3=O)C2)cc1`, the TGI in the test on TK-10 renal, in the test with CAKI-1 renal, in the test with HCC-2998 colon, with SW-620 colon, with NCI-H522 lung and with UO-31 renal was greater than 100 µM in each case. Moreover, in the test with M14 melanoma, the TGI was greater than 100 µM.

Take `O=c1oc2ccccc2c(O)c1C(C/C(CCN1CCCC1)=N\Nc1ccccc1)c1ccccc1` (stereo not drawn): the TGI in the test on TK-10 renal, in the test on CAKI-1 renal, in the test with A498 renal, in the test on HCC-2998 colon, with SW-620 colon and in the test on NCI-H522 lung was greater than 100 µM each time. The TGI in the test with UO-31 renal and in the test with M14 melanoma was greater than 100 µM in each case.

With `COc1ccc(N2C(=O)C3c4[nH]c5ccccc5c4C4CCCCC4C3C2=O)cc1` (stereo not drawn), the TGI in the test on TK-10 renal is 58.8 µM; in the test on CAKI-1 renal it was greater than 100 µM; with A498 renal, 54.4 µM; in the test on HCC-2998 colon it was 40.7 µM; in the test on SW-620 colon, greater than 100 µM; with NCI-H522 lung, greater than 100 µM. Also, the total growth inhibition concentration (TGI) with UO-31 renal and in the test with M14 melanoma was greater than 100 µM throughout.

For `COC1OC2=CCC3C(=O)NC(=O)C3C2[C@H](OCc2ccccc2)C1OCc1ccccc1` (stereo partly drawn), the total growth inhibition concentration (TGI) with TK-10 renal is 3.12 µM; in the test with HCC-2998 colon, 11.4 µM; in the test with SW-620 colon, 2.95 µM; with NCI-H522 lung, 3.18 µM; in the test with UO-31 renal, 32.2 µM; in the test with M14 melanoma, 3.19 µM.

Regarding `CC1(C)N=C(c2ccccn2)C(c2ccccn2)=NC1(C)C`, the TGI in the test with CAKI-1 renal, with A498 renal, with HCC-2998 colon, in the test on SW-620 colon, in the test with UO-31 renal and in the test on M14 melanoma was greater than 100 µM each time.

As to `COc1ccc2c(c1)OC[C@@H]1c3cc(O)c(OCc4ccccc4)cc3O[C@H]21`, the total growth inhibition concentration (TGI) with TK-10 renal was 96.4 µM; with CAKI-1 renal, 84.8 µM; with A498 renal, greater than 100 µM; in the test on HCC-2998 colon it was greater than 100 µM; in the test with SW-620 colon, 96.2 µM; in the test on NCI-H522 lung, 51.9 µM. Also, the TGI in the test on UO-31 renal is 75.9 µM; in the test with M14 melanoma it was 82.6 µM.
